How the values were obtained:
Format in all cases: cell-based
ERα [1] = biological target: T1, ERα (Homo sapiens, UniProt P03372); assay: Degradation of ERα in MCF-7 cells (immunoblotting, 4 h)
T1 sequence (P03372 1-595): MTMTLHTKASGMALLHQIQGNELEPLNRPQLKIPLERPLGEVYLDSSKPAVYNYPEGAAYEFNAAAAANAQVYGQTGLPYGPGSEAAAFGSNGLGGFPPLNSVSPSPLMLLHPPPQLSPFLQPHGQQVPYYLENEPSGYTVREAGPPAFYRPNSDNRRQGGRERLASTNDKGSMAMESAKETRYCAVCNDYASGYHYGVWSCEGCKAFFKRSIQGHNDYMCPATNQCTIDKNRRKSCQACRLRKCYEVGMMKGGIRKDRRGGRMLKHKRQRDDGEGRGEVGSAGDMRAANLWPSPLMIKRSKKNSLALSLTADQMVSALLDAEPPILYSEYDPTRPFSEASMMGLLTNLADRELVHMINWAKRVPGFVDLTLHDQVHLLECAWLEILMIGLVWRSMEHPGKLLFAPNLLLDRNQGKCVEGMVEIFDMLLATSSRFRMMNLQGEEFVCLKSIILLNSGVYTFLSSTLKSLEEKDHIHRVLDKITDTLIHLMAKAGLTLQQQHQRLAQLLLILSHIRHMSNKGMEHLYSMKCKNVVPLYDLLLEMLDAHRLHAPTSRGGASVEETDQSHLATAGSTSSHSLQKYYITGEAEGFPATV
Procedure, shortened: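 Degradation rate reflects ERα band intensity, corrected to an internal reference protein, relative to control. Values come from Western blotting of lysates from MCF-7 cells exposed 4 h at 37°C to compounds at final concentrations of 0.15-1000nM.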

MCF-7 cells = assay: Inhibition of cell proliferation of MCF-7 cells (CCK-8, 9 days); conditions: treated for 9 days, CCK-8 kit (Table 6)
Procedure, shortened: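 Read-out was CCK-8 viability after 9-day continuous exposure (37°C, 5% CO2) of MCF-7 cells plated at 800/well in 10% FBS DMEM across several compound concentrations. Values are proliferation IC50s.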

ERα [2] = biological target: T1, ERα; assay: Degradation of ERα in T-47D cells (immunoblotting, 4 h); set-up: host or cells: T-47D
Procedure, shortened: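 ERα protein levels were assessed by immunoblot of RIPA lysates (with protease inhibitor) after 4 h exposure at 37°C. Compound was added in DMSO to T-47D cells at final concentrations of 0.15-1000 nM.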

Degradation rate (%) of ERα in MCF-7 cells (ERα [1]; 1nM compound) [%] | Degradation rate (%) of ERα in MCF-7 cells (ERα [1]; 10nM compound) [%] | IC50 (MCF-7 cells) [nM] | Degradation rate (%) of ERα in T-47D cells (ERα [2]; 1nM compound) [%] | Degradation rate (%) of ERα in T-47D cells (ERα [2]; 10nM compound) [%] | Structure (SMILES)
60 | 72 | 49.7 | 74 | 88 | CN(C1CCN(c2ccc([C@@H]3c4ccc(O)cc4CC[C@@H]3c3ccccc3)cc2)CC1)[C@H]1CC[C@@H](C(=O)N2CCC3(CC2)COc2c3ccc3c2CN(C2CCC(=O)NC2=O)C3=O)CC1 (some centres unmarked) [B35]
75 | 76 | 10.5 | 76 | 86 | O=C1CCC(N2Cc3c(ccc4c3OCC43CCN(C(=O)C4CCN(CC5CCN(c6ccc([C@@H]7c8ccc(O)cc8CC[C@@H]7c7ccccc7)cc6)CC5)CC4)CC3)C2=O)C(=O)N1 (some centres unmarked) [K34]
3 | 44 | 30 | 18 | 60 | O=C1CCC(N2Cc3c(ccc4c3OCC43CCN(C4CC5(C4)CN(C4CCN(c6ccc([C@@H]7c8ccc(O)cc8CC[C@@H]7c7ccccc7)cc6)CC4)C5)CC3)C2=O)C(=O)N1 (some centres unmarked) [K12]
36 | 64 | 15.6 | 54 | 79 | O=C1CCC(N2Cc3c(ccc4c3OCC43CCN(C4CCN(C(=O)C5CCC6(CC5)CCN(c5ccc([C@@H]7c8ccc(O)cc8CC[C@@H]7c7ccccc7)cc5)CC6)CC4)CC3)C2=O)C(=O)N1 (some centres unmarked) [B18]
14 | 45 | 2350 | 40 | 77 | O=C1CCC(N2Cc3cc4c(cc3C2=O)CCC2(CN(CC3CCN(C(=O)C5CCN(c6ccc([C@@H]7c8ccc(O)cc8CC[C@@H]7c7ccccc7)cc6)CC5)CC3)C2)O4)C(=O)N1 (some centres unmarked) [K40]
20 | 42 | 9210 | 47 | 80 | O=C1CCC(N2Cc3c(ccc4c3OCC43CCN(C(=O)[C@H]4C[C@H](OC5CCN(c6ccc([C@@H]7c8ccc(O)cc8CC[C@@H]7c7ccccc7)cc6)CC5)C4)CC3)C2=O)C(=O)N1 (some centres unmarked) [K48]
-3 | 14 | 220 | 20 | 67 | O=C1CCC(N2Cc3cc4c(cc3C2=O)OC2(CC4)CN(C3CCC4(CC3)CCN(C3CCN(c5ccc([C@@H]6c7ccc(O)cc7CC[C@@H]6c6ccccc6)cc5)CC3)CC4)C2)C(=O)N1 (some centres unmarked) [K14]
69 | 68 | 3.24 | 67 | 80 | O=C1CCC(N2Cc3c(ccc4c3OCC43CCN(C(=O)CN4CCC5(CCN(c6ccc([C@@H]7c8ccc(O)cc8CC[C@@H]7c7ccccc7)cc6)CC5)C4)CC3)C2=O)C(=O)N1 (some centres unmarked) [A63]
37 | 40 | 4020 | 63 | 76 | O=C1CCC(N2Cc3c(ccc4c3OCC43CCN(C(=O)[C@H]4C[C@@H](OC5CCN(c6ccc([C@@H]7c8ccc(O)cc8CC[C@@H]7c7ccccc7)cc6)CC5)C4)CC3)C2=O)C(=O)N1 (some centres unmarked) [H61]
45 | 47 | 2.59 | 40 | 60 | O=C1CCC(N2Cc3c(ccc4c3OCC43CCN(CC(=O)N4CCC(C#Cc5ccc([C@@H]6c7ccc(O)cc7CC[C@@H]6c6ccccc6)cc5)CC4)CC3)C2=O)C(=O)N1 (some centres unmarked) [A79]
-11 | -17 | 91 | 26 | 21 | O=C1CCC(N2Cc3c(ccc4c3OC3(CC4)CCN(C4CC5(CCN(c6ccc([C@@H]7c8ccc(O)cc8CC[C@@H]7c7ccccc7)cc6)CC5)C4)CC3)C2=O)C(=O)N1 (some centres unmarked) [L21]
6 | 4 | 830 | 12 | 45 | O=C1CCC(N2Cc3cc4c(cc3C2=O)C2(CCN(C3CCC5(CC3)CCN(c3ccc([C@@H]6c7ccc(O)cc7CC[C@@H]6c6ccccc6)cc3)CC5)CC2)CO4)C(=O)N1 (some centres unmarked) [L5]
40 | 78 | 4.63 | 46 | 81 | O=C1CCC(N2Cc3c(ccc4c3OCC43CCN(C4CCN(CC5CCN(c6ccc([C@@H]7c8ccc(O)cc8CC[C@@H]7c7ccccc7)cc6)CC5)CC4F)CC3)C2=O)C(=O)N1 (some centres unmarked) [J5]
-10 | 3 | 1990 | 8 | 16 | O=C1CCC(N2Cc3c(ccc4c3OC3(CC4)CCN(C4CN(C5CCN(c6ccc([C@@H]7c8ccc(O)cc8CC[C@@H]7c7ccccc7)cc6)CC5)C4)CC3)C2=O)C(=O)N1 (some centres unmarked) [K2]
40 | 51 | 14800 | 56 | 65 | O=C1CCC(N2Cc3c(ccc4c3OCC43CCN(C4CCN(S(=O)(=O)C5CCN(c6ccc([C@@H]7c8ccc(O)cc8CC[C@@H]7c7ccccc7)cc6)CC5)CC4)CC3)C2=O)C(=O)N1 (some centres unmarked) [A122]
38 | 59 | 33000 | 59 | 84 | COC1(CN2CCC3(CC2)COc2c3ccc3c2CN(C2CCC(=O)NC2=O)C3=O)CCN(C(=O)C2CCN(c3ccc([C@@H]4c5ccc(O)cc5CC[C@@H]4c4ccccc4)cc3)CC2)CC1 (some centres unmarked) [D6]
38 | 35 | 106 | 41 | 37 | O=C1CCC(N2Cc3c(ccc4c3OCC43CCN(C(=O)CN4CCC(Oc5ccc([C@@H]6c7ccc(O)cc7CC[C@@H]6c6ccccc6)cc5)CC4)CC3)C2=O)C(=O)N1 (some centres unmarked) [H60]
32 | 60 | 22.6 | 8 | 51 | O=C1CCC(N2Cc3c(ccc4c3OCC43CCN(C4C5CCC4CN(C(=O)C4CCN(c6ccc([C@@H]7c8ccc(O)cc8CC[C@@H]7c7ccccc7)cc6)CC4)C5)CC3)C2=O)C(=O)N1 (some centres unmarked) [J4]
16 | 51 | 448 | 51 | 78 | O=C1CCC(N2Cc3cc4c(cc3C2=O)OC2(CC4)CN(C3CCN(C(=O)C4CCN(c5ccc([C@@H]6c7ccc(O)cc7CC[C@@H]6c6ccccc6)cc5)CC4)CC3)C2)C(=O)N1 (some centres unmarked) [A82]
-36 | 16 | 740 | 24 | 60 | O=C1CCC(N2Cc3cc4c(cc3C2=O)OC2(CC4)CN(C3CCC(N4CCN(c5ccc([C@@H]6c7ccc(O)cc7CC[C@@H]6c6ccccc6)cc5)CC4)CC3)C2)C(=O)N1 (some centres unmarked) [B16]
14 | 45 | 930 | 29 | 68 | O=C1CCC(N2Cc3ccc4c(c3C2=O)OCC2(CCN(C3CCC5(CC3)CN(c3ccc([C@@H]6c7ccc(O)cc7CC[C@@H]6c6ccccc6)cc3)C5)CC2)C4)C(=O)N1 (some centres unmarked) [L6]
-39 | 20 | 22.3 | -33 | 45 | O=C1CCC(N2Cc3c(ccc4c3OCC43CCN(C4CC5(CCC6(CC5)CN(c5ccc([C@@H]7c8ccc(O)cc8CC[C@@H]7c7ccccc7)cc5)C6)C4)CC3)C2=O)C(=O)N1 (some centres unmarked) [A81]
